# According to ChEMBL document CHEMBL5303304, “EUbOPEN Chemogenomics Library - IncuCyte” (2023):
# What was measured:
# Format in all cases: toxicity, cell-based
# Fibroblast = assay: Incucyte cell viability with human fibroblast; conditions: 10 µM, compound concentration 10 uM
# HEK-293T = assay: Incucyte cell viability with HEK293T; conditions: human, 10 µM, compound concentration 10 uM
# U2OS = assay: Incucyte cell viability with U2OS; conditions: human, 10 µM, compound concentration 10 uM
# Also: unitless GR value; below 1 slowed growth and below 0 cell loss.
smiles,measurement,setting,value
C[C@@H](NC(=O)Cc1ccc(C2CC2)cc1)c1ccc(OCC(F)(F)F)cn1,Growth Rate,"Fibroblast; 0 h, replicate number 1",-0.4
same,Growth Rate,"Fibroblast; 6 h, replicate number 1",0.85
same,Growth Rate,"Fibroblast; 6 h, replicate number 2",-0.99
same,Growth Rate,"Fibroblast; 12 h, replicate number 1",-1
same,Growth Rate,"Fibroblast; 12 h, replicate number 2",0.67
same,Growth Rate,"Fibroblast; 18 h, replicate number 1",-0.27
same,Growth Rate,"Fibroblast; 18 h, replicate number 2",0.93
same,Growth Rate,"Fibroblast; 24 h, replicate number 1",0.8
same,Growth Rate,"Fibroblast; 24 h, replicate number 2",0.89
same,Growth Rate,"HEK-293T; 6 h, replicate number 1",0.39
same,Growth Rate,"HEK-293T; 6 h, replicate number 2",0.17
same,Growth Rate,"HEK-293T; 12 h, replicate number 2",0.64
same,Growth Rate,"HEK-293T; 18 h, replicate number 2",0.63
same,Growth Rate,"HEK-293T; 24 h, replicate number 2",0.68
same,Growth Rate,"U2OS; 0 h, replicate number 1",-0.06
same,Growth Rate,"U2OS; 0 h, replicate number 2",-0.85
same,Growth Rate,"U2OS; 6 h, replicate number 2",0.67
same,Growth Rate,"U2OS; 12 h, replicate number 2",0.53
same,Growth Rate,"U2OS; 18 h, replicate number 2",0.79
same,Growth Rate,"U2OS; 24 h, replicate number 2",0.87
